Assay results from ChEMBL document CHEMBL5512632, “Unlocking the potential of 1,4-naphthoquinones: A comprehensive review of their anticancer properties” (Eur J Med Chem, 2024).
Values after ≈ are worked out from the molar mass of the structure shown. Blank lines part the entries; values can stand above or below the compound they belong to.

What was measured:
MDA-MB-231 = assay: Antiproliferative activity against human MDA-MB-231 cells incubated for 48 hrs by MTT assay; type: functional, cell-based; conditions: MDA-MB-231, 48 h
A549 [1] = assay: Antiproliferative activity against human A549 cells incubated for 48 hrs by MTT assay; type: functional, cell-based; conditions: A549, 48 h
HepG2 [2] = assay: Antiproliferative activity against human HepG2 cells incubated for 48 hrs by MTT assay; type: functional, cell-based; conditions: HepG2, 48 h
PC-3 [3] = assay: Cytotoxicity against human PC-3 cells assessed as inhibition of cell growth incubated for 72 hrs by sulforhodamine B assay; type: functional, cell-based; conditions: PC-3, 72 h
MCF7 [4] = assay: Cytotoxicity against human MCF7 cells assessed as inhibition of cell growth incubated for 72 hrs by sulforhodamine B assay; type: functional, cell-based; conditions: MCF7, 72 h
HT-29 = assay: Cytotoxicity against human HT-29 cells assessed as inhibition of cell growth incubated for 72 hrs by sulforhodamine B assay; type: functional, cell-based; conditions: HT-29, 72 h
HeLa [5] = assay: Cytotoxicity against human HeLa cells by sulforhodamine B staining based spectrophotometric analysis; type: functional, cell-based
HepG2 [6] = assay: Cytotoxicity against human HepG2 cells by sulforhodamine B staining based spectrophotometric analysis; type: functional, cell-based
TK-10 = assay: Cytotoxicity against human TK-10 cells by sulforhodamine B staining based spectrophotometric analysis; type: functional, cell-based
UACC-62 = assay: Cytotoxicity against human UACC-62 cells by sulforhodamine B staining based spectrophotometric analysis; type: functional, cell-based
PC-3 [7] = assay: Cytotoxicity against human PC-3 cells by sulforhodamine B staining based spectrophotometric analysis; type: functional, cell-based
MCF7 [8] = assay: Cytotoxicity against human MCF7 cells by sulforhodamine B staining based spectrophotometric analysis; type: functional, cell-based
SK-OV-3 [9] = assay: Cytotoxicity against human SK-OV-3 cells assessed as reduction in cell growth incubated for 24 hrs by DAPI staining based fluorescence imaging analysis; type: functional; conditions: SK-OV-3, 24 h
OVCAR-5 = assay: Cytotoxicity against human OVCAR-5 cells assessed as reduction in cell growth incubated for 24 hrs by DAPI staining based fluorescence imaging analysis; type: functional; conditions: OVCAR-5, 24 h
Bel-7402 = assay: Antiproliferative activity against human Bel-7402 cells assessed as inhibition of cell growth incubated for 72 hrs by MTT reagent based microplate reader assay; type: functional; conditions: Bel-7402, 72 h
MCF7 [10] = assay: Antiproliferative activity against human MCF7 cells assessed as inhibition of cell growth incubated for 72 hrs by MTT reagent based microplate reader assay; type: functional; conditions: MCF7, 72 h
HCT-15 [11] = assay: Antiproliferative activity against human HCT-15 cells assessed as inhibition of cell growth incubated for 72 hrs by MTT reagent based microplate reader assay; type: functional; conditions: HCT-15, 72 h
MGC-803 = assay: Antiproliferative activity against human MGC-803 cells assessed as inhibition of cell growth incubated for 72 hrs by MTT reagent based microplate reader assay; type: functional; conditions: MGC-803, 72 h
HCT-15 [12] = assay: Cytotoxicity against human HCT-15 cells assessed as reduction in cell viability incubated for 48 hrs by MTT assay; type: functional, cell-based; conditions: HCT-15, 48 h
PC-3 [13] = assay: Cytotoxicity against human PC-3 cells assessed as reduction in cell viability incubated for 48 hrs by MTT assay; type: functional, cell-based; conditions: PC-3, 48 h
HeLa [14] = assay: Cytotoxicity against human HeLa cells assessed as reduction in cell viability incubated for 48 hrs by MTT assay; type: functional, cell-based
DU-145 = assay: Cytotoxicity against human DU-145 cells assessed as reduction in cell viability incubated for 48 hrs by MTT assay; type: functional, cell-based; conditions: DU-145, 48 h
MCF7 [15] = assay: Cytotoxicity against human MCF7 cells assessed as reduction in cell viability incubated for 48 hrs by MTT assay; type: functional, cell-based; conditions: MCF7, 48 h
N2a = assay: Cytotoxicity against mouse Neuro2a cells incubated for 24 hrs by MTT reagent based microplate reader analysis; type: functional, cell-based
[16] = Cytotoxicity against mouse JB6 Cl 41-5a cells incubated for 24 hrs by MTT reagent based microplate reader analysis; type: toxicity, cell-based
HeLa [17] = assay: Cytotoxicity against human HeLa cells incubated for 24 hrs by MTT reagent based microplate reader analysis; type: functional, cell-based
HCT-116 = assay: Cytotoxicity against human HCT-116 cells assessed as reduction in cell viability incubated for 72 hrs by MTT reagent based microplate reader assay; type: functional; conditions: HCT-116, 72 h
HCT-15 [18] = assay: Cytotoxicity against human HCT-15 cells assessed as reduction in cell viability incubated for 72 hrs by MTT reagent based microplate reader assay; type: functional; conditions: HCT-15, 72 h
K562 = assay: Cytotoxicity against human K562 cells assessed as reduction in cell viability incubated for 72 hrs by MTT reagent based microplate reader assay; type: functional; conditions: K562, 72 h
[19] = Antiproliferative activity against human SK-RC-45 cells assessed as reduction in cell growth incubated for 24 hrs by MTT assay; type: functional, cell-based; conditions: SK-RC-45, 24 h
Glioblastoma cell line = assay: Antiproliferative activity against human Glioblastoma cell line assessed as reduction in cell growth incubated for 24 hrs by MTT assay; type: functional, cell-based
A549 [20] = assay: Antiproliferative activity against human A549 cells assessed as reduction in cell growth incubated for 24 hrs by MTT assay; type: functional, cell-based; conditions: A549, 24 h
A498 = assay: Antiproliferative activity against human A498 cells assessed as reduction in cell growth incubated for 24 hrs by MTT assay; type: functional, cell-based; conditions: A498, 24 h
HeLa [21] = assay: Antiproliferative activity against human HeLa cells assessed as reduction in cell growth incubated for 24 hrs by MTT assay; type: functional, cell-based
LNCaP = assay: Antiproliferative activity against human LNCaP cells assessed as reduction in cell growth incubated for 48 hrs by MTT reagent based microplate reader assay; type: functional
HepG2 [22] = assay: Antiproliferative activity against human HepG2 cells assessed as reduction in cell growth incubated for 48 hrs by MTT reagent based microplate reader assay; type: functional; conditions: HepG2, 48 h
A549 [23] = assay: Antiproliferative activity against human A549 cells assessed as reduction in cell growth incubated for 48 hrs by MTT reagent based microplate reader assay; type: functional; conditions: A549, 48 h
MCF7 [24] = assay: Antiproliferative activity against human MCF7 cells assessed as reduction in cell growth incubated for 48 hrs by MTT reagent based microplate reader assay; type: functional; conditions: MCF7, 48 h
SK-OV-3 [25] = assay: Antiproliferative activity against human SK-OV-3 cells assessed as reduction in cell growth incubated for 48 hrs by MTT reagent based microplate reader assay; type: functional; conditions: SK-OV-3, 48 h
NAMALVA [26] = assay: Antiproliferative activity against human NAMALVA cells assessed as inhibition of cell growth incubated upto 24 hrs by MTT assay; type: functional, cell-based
NAMALVA [27] = assay: Antitumor activity against human NAMALVA cells xenografted in NOD/SCID mouse assessed as reduction in tumor weight at 4 mg/kg,ip administration for 19 consecutive days; type: functional; design: scale not given: the % may be the effect or the level left
A549 [28] = assay: Cytotoxicity against human A549 cells incubated for 24 hrs by MTT assay; type: functional, cell-based; conditions: A549, 24 h
[29] = Cytotoxicity against human Lung adenocarcinoma cell line; type: functional, cell-based

IC50 (MDA-MB-231): 6.01 µM
IC50 (A549 [1]): 7.02 µM
IC50 (HepG2 [2]): 7.2 µM
SMILES: CC1=C(CCNC(=O)c2ccccc2)C(=O)c2c(O)cccc2C1=O

SMILES: CN(C)N1C=C2C[C@@H](O[Si](C)(C)C(C)(C)C)[C@@H]3OC(C)(C)O[C@@H]3[C@H]2C2=C1C(=O)c1c(O)cccc1C2=O
IC50 (PC-3 [3]): 700 nM
IC50 (MCF7 [4]): 16 µM
IC50 (HT-29): 200 nM

SMILES: O=C1C(CSc2ccc(F)cc2)=C(C2=C(CSc3ccc(F)cc3)C(=O)c3ccccc3C2=O)C(=O)c2ccccc21
IC50 (HeLa [5]): 31.5 µM
IC50 (HepG2 [6]): 8.75 µM
IC50 (TK-10): 3.77 µM
IC50 (UACC-62): 2980 nM
IC50 (PC-3 [7]): 6.98 µM
IC50 (MCF7 [8]): 3.24 µM

SMILES: COc1cc(/C=C/C(=O)/C=C(O)/C=C/c2ccc(OC3=CC(=O)c4ccccc4C3=O)c(OC)c2)ccc1OC1=CC(=O)c2ccccc2C1=O
IC50 (SK-OV-3 [9]): 5.35 µM
IC50 (OVCAR-5): 4.05 µM

IC50 (Bel-7402): 4.21 µM
IC50 (MCF7 [10]): 6.94 µM
IC50 (HCT-15 [11]): 1640 nM
IC50 (MGC-803): 3.28 µM
SMILES: CCCCCCCC(Oc1cc(OC)c(OC)c(OC)c1)c1ccc2c(c1)/C(=N\O)C=C/C2=N\O (stereo not drawn)

SMILES: CO/N=C1\C(c2cc3c(cc2OC)OCO3)=CC(=O)c2cc3c(cc21)OCO3
IC50 (HCT-15 [12]): 55 nM
IC50 (PC-3 [13]): 319 nM
IC50 (HeLa [14]): 104 nM
IC50 (DU-145): 23 nM
IC50 (MCF7 [15]): 196 nM

SMILES: O=C1C2=C(O[C@@H]3[C@@H](O)[C@@H](O)CO[C@H]3S2)C(=O)c2c(O)cccc21
IC50 (N2a): 1400 nM
IC50 at 24 h [16]: 700 nM
IC50 (HeLa [17]): 400 nM

SMILES: COc1cc(C(CCC(C)C)OC)c(OC)c2c1/C(=N/O)C=C/C2=N/O (stereo not drawn)
IC50 (HCT-116): 2470 nM
IC50 (HCT-15 [18]): 1630 nM
IC50 (K562): 1250 nM

IC50 (Glioblastoma cell line): 17.2 µM
IC50 (A549 [20]): 29.6 µM
IC50 (HeLa [21]): 34.3 µM
SMILES: O=C1C(O)=C(C(C2=C(O)C(=O)c3ccccc3C2=O)c2ccc(C(F)(F)F)cc2)C(=O)c2ccccc21
IC50 [19]: 30.3 µM
IC50 (A498): 27.5 µM

IC50 (LNCaP): 3.62 µM
IC50 (HepG2 [22]): 7.13 µM
IC50 (A549 [23]): 6.11 µM
IC50 (MCF7 [24]): 4.91 µM
IC50 (SK-OV-3 [25]): 12.2 µM
SMILES: CC1=C(C2CC(=O)N(C)C2=O)C(=O)c2c(O)cccc2C1=O (stereo not drawn)

SMILES: CC(C)=CC[C@@H](O)C1=CC(=O)c2c(O)ccc(O)c2C1=O [SHIKONIN]
IC50 (NAMALVA [26]): 193 µM
Activity (NAMALVA [27]): 50%
IC50 (A549 [28]): 3.52 µg/mL (≈ 12.2 µM)
IC50 [29]: < 5 µM
